The results in this text go back to patent US10844032B2, “Substituted benzofuran, benzothiophene and indole Mcl-1 inhibitors” (Vanderbilt University, priority 2012, dated 2020).

Bounds are passed on as bounds.

For the first assay, the target named is recombinant Mcl-1 (residues 172-327) (Homo sapiens (Human), UniProt Q07820). In words: Bak peptide fluorescence polarization anisotropy competition assay, Mcl-1. To be noted: Table 2, Ki range; FITC-Bak peptide 10 nM, Mcl-1 14 nM; read-out: Ki for inhibition of Mcl-1. It counts as binding.
Chain of recombinant Mcl-1 (residues 172-327) (Q07820 172-327): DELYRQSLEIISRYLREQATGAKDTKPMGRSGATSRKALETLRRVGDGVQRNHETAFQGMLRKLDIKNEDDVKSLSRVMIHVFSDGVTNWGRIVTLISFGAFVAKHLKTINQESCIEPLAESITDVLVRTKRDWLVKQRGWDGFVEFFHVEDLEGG
Consider `Cc1cc2nccn2cc1-c1cccc2c(CCCOc3cc(C)c(Cl)c(C)c3)c(C(=O)NS(=O)(=O)c3ccccc3)[nH]c12` [Example 299, 3-(3-(4-chloro-3,5-dimethylphenoxy)propyl)-7-(7-methylimidazo[1,2-a]pyridin-6-yl)-N-(phenylsulfonyl)-1H-indole-2-carboxamide], for which the Ki was not above 0.1 µM.

With `Cc1cc2nnnn2cc1-c1cccc2c(CCCOc3cc(C)c(Cl)c(C)c3)c(C(=O)NS(=O)(=O)c3ccccc3)[nH]c12` [Example 300, 3-(3-(4-chloro-3,5-dimethylphenoxy)propyl)-7-(7-methyltetrazolo[1,5-a]pyridin-6-yl)-N-(phenylsulfonyl)-1H-indole-2-carboxamide], the inhibition constant Ki was not above 0.1 µM. As to `Cc1cc(OCCCc2c(C(=O)NS(=O)(=O)CCNC(=O)c3cccc(C(F)(F)F)c3)[nH]c3cc(Cl)ccc23)cc(C)c1Cl` [Example 255, 6-chloro-3-(3-(4-chloro-3,5-dimethylphenoxy)propyl)-N-((2-(3-(trifluoromethyl)benzamido)ethyl)sulfonyl)-1H-indole-2-carboxamide], the inhibition constant Ki is not above 0.1 µM. Same read-out and setting: then `CCCn1nccc1-c1cccc2c(CCCOc3cc(C)c(Cl)c(C)c3)c(C(=O)NS(=O)(=O)c3ccccc3)[nH]c12` [Example 303, 3-(3-(4-chloro-3,5-dimethylphenoxy)propyl)-N-(phenylsulfonyl)-7-(1-propyl-1H-pyrazol-5-yl)-1H-indole-2-carboxamide], with not above 0.1 µM; and `COc1nccc(C)c1-c1cccc2c(CCCOc3cc(C)c(Cl)c(C)c3)c(C(=O)NS(=O)(=O)c3ccccc3)[nH]c12` [Example 301, 3-(3-(4-chloro-3,5-dimethylphenoxy)propyl)-7-(2-methoxy-4-methylpyridin-3-yl)-N-(phenylsulfonyl)-1H-indole-2-carboxamide], with not above 0.1 µM. The same measure, in the same setting: then `Cc1cc(OCCCc2c(C(=O)NS(C)(=O)=O)[nH]c3cccc(C)c23)cc(C)c1Cl` [Example 116, 3-(3-(4-chloro-3,5-dimethylphenoxy)propyl)-4-methyl-N-(methylsulfonyl)-1H-indole-2-carboxamide], with not above 0.1 µM.

The assay is the same for the next values; noted with them: read-out: Ki for inhibition of Mcl-1.
With `CS(=O)(=O)NC(=O)c1[nH]c2ccccc2c1CCCOc1cccc2c1CCC2` [Example 74, 3-(3-((2,3-dihydro-1H-inden-4-yl)oxy)propyl)-N-(methylsulfonyl)-1H-indole-2-carboxamide], the Ki is 1 to 9.99 µM. The same measure, in the same setting: in the case of `Cc1cc(OCCCc2c(C(=O)NS(=O)(=O)CCNC(=O)c3ccc4c(ccn4C)c3)[nH]c3ccccc23)cc(C)c1Cl` [Example 196, 3-(3-(4-chloro-3,5-dimethylphenoxy)propyl)-N-((2-(1-methyl-1H-indole-5-carboxamido)ethyl)sulfonyl)-1H-indole-2-carboxamide] it was 0.301 to 0.5 µM. Regarding `CS(=O)(=O)NC(=O)c1[nH]c2cc(Cl)ccc2c1CCCOc1cccc2c1CCCC2` [Example 75, 6-chloro-N-(methylsulfonyl)-3-(3-((5,6,7,8-tetrahydronaphthalen-1-yl)oxy)propyl)-1H-indole-2-carboxamide], the inhibition constant (Ki) lay in the range of 0.501 to 0.999 µM. Still for that read-out and setting: in the case of `Cc1cc(OCCCc2c(C(=O)NS(=O)(=O)c3ccc(Oc4ccccc4)cc3)[nH]c3ccccc23)cc(C)c1Cl` [Example 132, 3-(3-(4-chloro-3,5-dimethylphenoxy)propyl)-N-((4-phenoxyphenyl)sulfonyl)-1H-indole-2-carboxamide] it was 0.301 to 0.5 µM; in that of `Cc1cc(OCCCc2c(C(=O)NS(=O)(=O)c3cccnc3)[nH]c3ccccc23)cc(C)c1Cl` [Example 133, 3-(3-(4-chloro-3,5-dimethylphenoxy)propyl)-N-(pyridin-3-ylsulfonyl)-1H-indole-2-carboxamide], 0.301 to 0.5 µM. Still for that read-out and setting: in the case of `CS(=O)(=O)NC(=O)c1[nH]c2ccccc2c1CCCOc1ccc2ccccc2c1` [Example 37, N-(methylsulfonyl)-3-(3-(naphthalen-2-yloxy)propyl)-1H-indole-2-carboxamide] it was 1 to 9.99 µM. Same read-out and setting: then `Cc1cc(OCCCc2c(C(=O)NS(=O)(=O)CCNC(=O)c3cccn3Cc3ccccc3)[nH]c3ccccc23)cc(C)c1Cl` [Example 200, N-((2-(1-benzyl-1H-pyrrole-2-carboxamido)ethyl)sulfonyl)-3-(3-(4-chloro-3,5-dimethylphenoxy)propyl)-1H-indole-2-carboxamide], with 0.101 to 0.299 µM; and `Cc1cc(OCCCc2c(C(=O)NS(=O)(=O)CCNC(=O)[C@@H]3Cc4ccccc4N3C)[nH]c3cc(Cl)ccc23)cc(C)c1Cl` [Example 238, (S)-6-chloro-3-(3-(4-chloro-3,5-dimethylphenoxy)propyl)-N-((2-(1-methylindoline-2-carboxamido)ethyl)sulfonyl)-1H-indole-2-carboxamide], with 0.101 to 0.299 µM. In the case of `Cc1cc(OCCCc2c(C(=O)NS(=O)(=O)c3ccc(OCc4ccccc4)cc3)n(Cc3cccnc3)c3cc(Cl)ccc23)cc(C)c1Cl` [Example 274, N-((4-(benzyloxy)phenyl)sulfonyl)-6-chloro-3-(3-(4-chloro-3,5-dimethylphenoxy)propyl)-1-(pyridin-3-ylmethyl)-1H-indole-2-carboxamide], the Ki was in the range of 1 to 9.99 µM. Turning to `Cc1cccc(OCCCc2c(C(=O)NS(C)(=O)=O)[nH]c3ccccc23)c1` [Example 31, N-(methylsulfonyl)-3-(3-(m-tolyloxy)propyl)-1H-indole-2-carboxamide], the Ki fell in the range of 10 to 50 µM.

Regarding `Cc1cc(OCCCc2c(C(=O)NS(=O)(=O)c3cccc(C(=O)NC4CCOCC4)c3)[nH]c3ccccc23)cc(C)c1Cl` [Example 202, 3-(3-(4-chloro-3,5-dimethylphenoxy)propyl)-N-((3-((tetrahydro-2H-pyran-4-yl)carbamoyl)phenyl)sulfonyl)-1H-indole-2-carboxamide], the inhibition constant (Ki) was in the range of 0.101 to 0.299 µM. `Cc1ccccc1-c1cccc2c(CCCOc3cc(C)c(Cl)c(C)c3)c(C(=O)NS(C)(=O)=O)[nH]c12` [Example 84, 3-(3-(4-chloro-3,5-dimethylphenoxy)propyl)-N-(methylsulfonyl)-7-(o-tolyl)-1H-indole-2-carboxamide]: the Ki is 0.101 to 0.299 µM. Same read-out and setting: in the case of `Cc1cc(OCCCc2c(C(=O)NS(=O)(=O)c3ccc(C(=O)N4CCOCC4)n3C)[nH]c3cc(Cl)ccc23)cc(C)c1Cl` [Example 267, 6-chloro-3-(3-(4-chloro-3,5-dimethylphenoxy)propyl)-N-((1-methyl-5-(morpholine-4-carbonyl)-1H-pyrrol-2-yl)sulfonyl)-1H-indole-2-carboxamide] it was 0.101 to 0.299 µM; in that of `Cc1cc(OCCCc2c(C(=O)NS(=O)(=O)CC3CCN(C(=O)c4cccn4C)CC3)[nH]c3ccccc23)cc(C)c1Cl` [Example 211, 3-(3-(4-chloro-3,5-dimethylphenoxy)propyl)-N-(((1-(1-methyl-1H-pyrrole-2-carbonyl)piperidin-4-yl)methyl)sulfonyl)-1H-indole-2-carboxamide], 0.301 to 0.5 µM. On the same count and under the same terms, then `Cc1cc(OCCCc2c(C(=O)NS(=O)(=O)CCNS(=O)(=O)c3ccccc3)[nH]c3ccccc23)cc(C)c1Cl` [Example 146, 3-(3-(4-chloro-3,5-dimethylphenoxy)propyl)-N-((2-(phenylsulfonamido)ethyl)sulfonyl)-1H-indole-2-carboxamide], with 0.101 to 0.299 µM. The same measure, in the same setting: then `Cc1cc(OCCCc2c(C(=O)NS(=O)(=O)CCOc3ccccc3)[nH]c3ccccc23)cc(C)c1Cl` [Example 141, 3-(3-(4-chloro-3,5-dimethylphenoxy)propyl)-N-((2-phenoxyethyl)sulfonyl)-1H-indole-2-carboxamide], with 0.301 to 0.5 µM.
